For 3 compounds, IC50, AC50 and EC50 results are on record in ChEMBL document CHEMBL1201862, “PubChem BioAssay data set” (2004).

Assay [1] concerns the target T1, Sentrin-specific protease 6 (Homo sapiens, UniProt Q9GZR1).
T1 sequence (Q9GZR1 whole entry): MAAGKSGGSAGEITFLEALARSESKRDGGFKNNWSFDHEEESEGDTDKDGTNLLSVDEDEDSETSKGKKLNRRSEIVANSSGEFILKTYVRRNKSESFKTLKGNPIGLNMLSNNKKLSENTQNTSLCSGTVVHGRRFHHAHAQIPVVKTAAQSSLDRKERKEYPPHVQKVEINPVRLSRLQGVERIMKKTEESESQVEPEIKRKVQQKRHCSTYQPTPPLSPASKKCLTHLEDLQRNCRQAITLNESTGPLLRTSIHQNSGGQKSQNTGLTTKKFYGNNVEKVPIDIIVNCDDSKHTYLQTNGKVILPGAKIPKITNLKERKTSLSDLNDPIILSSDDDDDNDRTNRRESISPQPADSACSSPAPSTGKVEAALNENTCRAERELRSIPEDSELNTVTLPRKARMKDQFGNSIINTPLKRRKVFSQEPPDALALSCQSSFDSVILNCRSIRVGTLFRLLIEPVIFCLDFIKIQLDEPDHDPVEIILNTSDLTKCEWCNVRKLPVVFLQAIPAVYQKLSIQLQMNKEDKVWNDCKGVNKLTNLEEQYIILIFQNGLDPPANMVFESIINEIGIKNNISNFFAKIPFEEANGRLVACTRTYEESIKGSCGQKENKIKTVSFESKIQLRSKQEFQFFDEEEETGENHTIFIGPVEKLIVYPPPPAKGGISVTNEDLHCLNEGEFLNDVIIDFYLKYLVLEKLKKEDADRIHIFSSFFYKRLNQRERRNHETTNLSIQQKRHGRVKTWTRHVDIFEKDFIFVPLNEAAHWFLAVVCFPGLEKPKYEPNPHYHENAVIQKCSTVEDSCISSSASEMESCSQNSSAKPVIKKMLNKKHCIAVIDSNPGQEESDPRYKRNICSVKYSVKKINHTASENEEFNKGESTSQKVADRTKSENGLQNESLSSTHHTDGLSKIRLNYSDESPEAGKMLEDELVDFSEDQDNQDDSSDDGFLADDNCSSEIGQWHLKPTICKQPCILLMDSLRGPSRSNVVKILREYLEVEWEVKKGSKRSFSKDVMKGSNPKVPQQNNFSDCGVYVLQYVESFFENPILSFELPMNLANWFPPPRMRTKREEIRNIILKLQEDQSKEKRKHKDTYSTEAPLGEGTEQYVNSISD
As to the kind of experiment: SAR Analysis of small molecule inhibitors of Sentrin-specific protease 6 (SENP6) using a Luminescent assay. [Related pubchem assays (depositor defined):AID2582, AID2599]. It counts as functional.

Assay [2] can be described thus: general cell-killing toxicity readout – plate reader, dry powder samples, cytotoxicity control for PAX8 inhibitor project, dose response (AID 743021). It counts as functional, cell-based.
The test system of assay [3] is BJ. As to the kind of experiment: cells. Type of assay: functional, cell-based. The conditions noted are these: Homo sapiens.
Assay [4] concerns BJ. As to the kind of experiment: BJ-TERT-LT-ST fibroblast viability loss – cell-based, RAS-independent, luminescence, dose response (AID 1935).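 Further: BJ fibroblasts immortalized with TERT plus LT and ST oncogenes.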 It counts as functional. The conditions noted are these: Homo sapiens.
For assay [5], the target named is T2, Histone-lysine N-methyltransferase NSD2 (Homo sapiens, UniProt O96028).
T2 sequence (O96028 whole entry): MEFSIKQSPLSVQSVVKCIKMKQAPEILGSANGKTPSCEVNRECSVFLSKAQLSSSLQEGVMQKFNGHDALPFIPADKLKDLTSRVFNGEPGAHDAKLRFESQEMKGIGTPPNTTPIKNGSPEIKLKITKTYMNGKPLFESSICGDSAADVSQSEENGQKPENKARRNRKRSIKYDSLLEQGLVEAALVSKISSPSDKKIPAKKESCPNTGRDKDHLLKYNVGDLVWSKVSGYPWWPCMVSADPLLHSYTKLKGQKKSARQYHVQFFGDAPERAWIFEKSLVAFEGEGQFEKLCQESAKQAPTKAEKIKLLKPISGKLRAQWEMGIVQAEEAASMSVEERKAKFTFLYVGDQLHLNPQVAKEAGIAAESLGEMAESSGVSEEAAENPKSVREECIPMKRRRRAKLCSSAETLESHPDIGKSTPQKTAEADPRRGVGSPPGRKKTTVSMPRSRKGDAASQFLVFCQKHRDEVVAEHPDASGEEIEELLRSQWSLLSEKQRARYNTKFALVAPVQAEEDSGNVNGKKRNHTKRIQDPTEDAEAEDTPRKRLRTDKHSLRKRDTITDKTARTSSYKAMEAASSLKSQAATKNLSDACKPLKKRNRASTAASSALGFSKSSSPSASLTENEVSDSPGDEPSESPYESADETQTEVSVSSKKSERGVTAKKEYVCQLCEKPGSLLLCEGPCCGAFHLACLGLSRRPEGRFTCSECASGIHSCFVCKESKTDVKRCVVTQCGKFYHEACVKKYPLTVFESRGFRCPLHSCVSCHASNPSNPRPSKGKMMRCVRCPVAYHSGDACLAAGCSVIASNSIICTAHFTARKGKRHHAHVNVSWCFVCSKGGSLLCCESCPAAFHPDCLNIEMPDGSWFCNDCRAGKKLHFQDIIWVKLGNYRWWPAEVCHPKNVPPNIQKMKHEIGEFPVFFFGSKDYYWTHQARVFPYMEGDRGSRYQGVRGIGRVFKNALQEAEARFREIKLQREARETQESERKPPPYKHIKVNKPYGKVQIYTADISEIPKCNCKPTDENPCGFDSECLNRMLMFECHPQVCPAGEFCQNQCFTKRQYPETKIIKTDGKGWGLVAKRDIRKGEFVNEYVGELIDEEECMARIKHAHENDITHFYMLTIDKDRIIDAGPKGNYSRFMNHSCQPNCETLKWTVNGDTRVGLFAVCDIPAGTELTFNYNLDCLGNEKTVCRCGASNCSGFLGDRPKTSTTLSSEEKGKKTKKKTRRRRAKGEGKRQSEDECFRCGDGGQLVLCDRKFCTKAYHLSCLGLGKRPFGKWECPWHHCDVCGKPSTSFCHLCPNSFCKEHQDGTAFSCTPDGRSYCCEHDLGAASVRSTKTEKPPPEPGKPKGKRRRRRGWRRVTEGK
Type of assay: biochemical.

The source made the active and inactive calls.

With `Oc1ccc(/C=N/Nc2cc(N3CCCC3)nc(N3CCCC3)n2)cc1`, in assay [1], the IC50 is 18.1 µM (active).

For `COc1ccc(S(=O)(=O)/N=C2\C=C(Nc3ccc(O)cc3)C(=O)c3ccccc32)cc1`, in assay [2], the AC50 is 7.4 µM (active). The EC50 was 3.21 µM (inconclusive) in the assay on BJ [3] and 2.93 µM (inconclusive) in the assay with BJ [4].

On to `COc1ccc(/C=N/Nc2cc(N3CCCC3)nc(N3CCCC3)n2)cc1`, for which the AC50 in assay [5] is 2.01 µM (active).
